# Assay results reported in patent US12138256B2, “Treatment of cardiopulmonary disorders” (Bayer Aktiengesellschaft, priority 2021, dated 2024).
# Tested on: pulmonary vascular resistance (PVR)
# Test: Phase 1b, patients with PAH or CTEPH, inhaled single doses, right heart catheterization: PVR and mPAP (C-4.4)
# Format: in vivo, human
# Experimental: Patients with PAH or CTEPH were treated in a clinical phase 1b study with escalating orally inhaled single* doses of 240 μg (2 capsules of 120 μg), 480 μg, 1000 μg, 2000 (2 capsules of 1000 μg) or 4000 μg (4 capsules of 1000 μg) of a dry powder of example 4 (see under D-1, e.g. tables 17 and 20), inserted into a handheld inhalation device, inhaled by deep inhalative breath into the deep parts of the lung. (*single dose means the administration of one dosage form/capsule as well as administration of two or more dosage forms/capsules simultaneously or consecutively within a short time period). The included patients had no background treatment with standard of care (SoC) medication for PAH or CTEPH (such as endothelin antagonists, prostanoids, phosphodiesterase type 5 inhibitor or soluble guanylate cyclase stimulators). Patients in this study underwent invasive right heart catheterization as medically indicated routine diagnostic. Primary objective of the study was to investigate the peak percent reduction from baseline in PVR. Patients had to have a baseline pulmonary artery pressure (mPAP) of ≥25 mmHg and a PVR of ≥400 dyn·sec·cm^−5 (5 Wood Units) and were not to show vaso-responsiveness to initial iNO inhalation testing to be included in the per protocol analysis. Plasma concentrations (pharmacokinetics) of the administered drug at several time points after administration were measured and safety and tolerability was assessed.
# The study is divided into two parts, Part A and Part B. In Part A escalating aforementioned single doses were administered to patients without background treatment with standard of care (SoC) medication for PAH or CTEPH (such as endothelin antagonists, prostanoids, phosphodiesterase type 5 inhibitor or soluble guanylate cyclase stimulators). In Part B, after finalization of Part A, a selected dose from PartA will be tested in further patients without background SoC treatment (group 1) and additionally in patients on monotherapy with SoC (group 2) and on dual combination therapy with SoC (group 3).
# The PVR is a derived parameter from parameters directly measured during the right heart catheterization procedure. The direct parameters included in the calculation are: mean pulmonary arterial pressure [mmHg](mPAP), pulmonary capillary wedge pressure [mmHg] (PCWP), and cardiac output [l/min] (CO). The PVR is calculated according to the formula: PVR [dyn*see*cm^−5]=80*(mPAP-PCWP)/CO.
# Overall 38 patients received a dose of dry powder of example 4. A total of 4 patients in each dose group were included into the per protocol set as planned (total 20 patients). A dose-dependent mean change of PVR from baseline could be clearly observed peaking in an enduring mean change of approximately −30% in the 2000 μg and 4000 μg groups (for details of PVR see FIG. 82 and table C4.4.1). The decreases in PVR were predominantly driven by decreases in pulmonary arterial pressure (for details of mean PAP see FIG. 83 and table C4.4.2). A mean peak change level of −20%—as the predefined relevant threshold level—was clearly exceeded peaking in the 2000 μg and 4000 μg groups (mean peak changes were: −21.0%, −16.1%, −25.9%, −38.1%, −36.3% for 240, 480, 1000, 2000, and 4000 μg, respectively). The magnitude of mean change in PVR of −30% from baseline was at the same level as for the inhaled competitor Treprostinil (Tyvaso®) after single administration in a historical comparison [Voswinckel et al, Journal of American College of Cardiology Vol. 48, No. 8, 2006 Oct. 17, 2006:1672-81]. However, the effect after example 4 application was advantageously sustained with no decrease in response until the end of the measurement period of 3 h (a measurement period of >3 h was technically not feasible for the patients with right heart catheter in the study). […] Increase of systemic cGMP (cyclic Guanosine Monophosphate) confirmed strong target engagement of sGC activation. […]
# [1] = 240 μg, 0 D 00 H 00 M (baseline)
# [2] = 480 μg, 0 D 00 H 00 M (baseline)
# [3] = 1000 μg, 0 D 00 H 00 M (baseline)
# [4] = 2000 μg, 0 D 00 H 00 M (baseline)
# [5] = 4000 μg, 0 D 00 H 00 M (baseline)
structure (smiles),measurement,setting,value
"O=C(O)c1ccc(CCN(CCc2ccccc2OCc2ccc(-c3ccc(C(F)(F)F)cc3)cc2Cl)[C@H]2CCCc3nc(C(=O)O)ccc32)cc1 [example 4, (5S)-{[2-(4-Carboxyphenyl)ethyl][2-(2-{[3-chloro-4′-(trifluoromethyl)biphenyl-4-yl]methoxy}phenyl)-ethyl]amino}-5,6,7,8-tetrahydroquinoline-2-carboxylic acid]",mean peak change of PVR from baseline,240 μg,−21.0%
same,"mean pulmonary arterial pressure (mPAP), mean ± SD",[1],42.8 ± 11.1 mmHg
same,"pulmonary vascular resistance (PVR), mean ± SD",[1],788.338 ± 416.914 dyn·sec·cm^−5
same,"mean pulmonary arterial pressure (mPAP), mean ± SD","240 μg, 0 D 00 H 30 M",42.5 ± 11.0 mmHg
same,"pulmonary vascular resistance (PVR), mean ± SD","240 μg, 0 D 00 H 30 M",749.012 ± 398.928 dyn·sec·cm^−5
same,"mean pulmonary arterial pressure (mPAP), mean ± SD","240 μg, 0 D 01 H 00 M",44.3 ± 10.4 mmHg
same,"pulmonary vascular resistance (PVR), mean ± SD","240 μg, 0 D 01 H 00 M",734.427 ± 396.799 dyn·sec·cm^−5
same,"mean pulmonary arterial pressure (mPAP), mean ± SD","240 μg, 0 D 01 H 30 M",43.0 ± 8.0 mmHg
same,"pulmonary vascular resistance (PVR), mean ± SD","240 μg, 0 D 01 H 30 M",726.362 ± 364.099 dyn·sec·cm^−5
same,"mean pulmonary arterial pressure (mPAP), mean ± SD","240 μg, 0 D 02 H 00 M",39.5 ± 7.9 mmHg
same,"pulmonary vascular resistance (PVR), mean ± SD","240 μg, 0 D 02 H 00 M",710.844 ± 410.668 dyn·sec·cm^−5
same,"mean pulmonary arterial pressure (mPAP), mean ± SD","240 μg, 0 D 02 H 30 M",42.0 ± 6.5 mmHg
same,"pulmonary vascular resistance (PVR), mean ± SD","240 μg, 0 D 02 H 30 M",716.209 ± 419.311 dyn·sec·cm^−5
same,"mean pulmonary arterial pressure (mPAP), mean ± SD","240 μg, 0 D 03 H 00 M",39.0 ± 4.2 mmHg
same,"pulmonary vascular resistance (PVR), mean ± SD","240 μg, 0 D 03 H 00 M",657.829 ± 291.191 dyn·sec·cm^−5
same,mean peak change of PVR from baseline,480 μg,−16.1%
same,"mean pulmonary arterial pressure (mPAP), mean ± SD",[2],55.0 ± 8.6 mmHg
same,"pulmonary vascular resistance (PVR), mean ± SD",[2],1055.863 ± 317.077 dyn·sec·cm^−5
same,"mean pulmonary arterial pressure (mPAP), mean ± SD","480 μg, 0 D 00 H 30 M",52.3 ± 8.4 mmHg
same,"pulmonary vascular resistance (PVR), mean ± SD","480 μg, 0 D 00 H 30 M",1003.264 ± 300.639 dyn·sec·cm^−5
same,"mean pulmonary arterial pressure (mPAP), mean ± SD","480 μg, 0 D 01 H 00 M",53.8 ± 9.1 mmHg
same,"pulmonary vascular resistance (PVR), mean ± SD","480 μg, 0 D 01 H 00 M",1007.504 ± 290.883 dyn·sec·cm^−5
same,"mean pulmonary arterial pressure (mPAP), mean ± SD","480 μg, 0 D 01 H 30 M",55.0 ± 8.0 mmHg
same,"pulmonary vascular resistance (PVR), mean ± SD","480 μg, 0 D 01 H 30 M",1031.647 ± 252.210 dyn·sec·cm^−5
same,"mean pulmonary arterial pressure (mPAP), mean ± SD","480 μg, 0 D 02 H 00 M",52.5 ± 7.9 mmHg
same,"pulmonary vascular resistance (PVR), mean ± SD","480 μg, 0 D 02 H 00 M",908.704 ± 252.569 dyn·sec·cm^−5
same,"mean pulmonary arterial pressure (mPAP), mean ± SD","480 μg, 0 D 02 H 30 M",54.0 ± 9.7 mmHg
same,"pulmonary vascular resistance (PVR), mean ± SD","480 μg, 0 D 02 H 30 M",1038.344 ± 263.837 dyn·sec·cm^−5
same,"mean pulmonary arterial pressure (mPAP), mean ± SD","480 μg, 0 D 03 H 00 M",56.0 ± 11.1 mmHg
same,"pulmonary vascular resistance (PVR), mean ± SD","480 μg, 0 D 03 H 00 M",909.265 ± 259.510 dyn·sec·cm^−5
same,mean peak change of PVR from baseline,1000 μg,−25.9%
same,"mean pulmonary arterial pressure (mPAP), mean ± SD",[3],34.3 ± 4.9 mmHg
same,"pulmonary vascular resistance (PVR), mean ± SD",[3],608.898 ± 135.153 dyn·sec·cm^−5
same,"mean pulmonary arterial pressure (mPAP), mean ± SD","1000 μg, 0 D 00 H 30 M",33.8 ± 7.5 mmHg
same,"pulmonary vascular resistance (PVR), mean ± SD","1000 μg, 0 D 00 H 30 M",645.387 ± 211.946 dyn·sec·cm^−5
same,"mean pulmonary arterial pressure (mPAP), mean ± SD","1000 μg, 0 D 01 H 00 M",31.8 ± 7.4 mmHg
same,"pulmonary vascular resistance (PVR), mean ± SD","1000 μg, 0 D 01 H 00 M",558.324 ± 169.860 dyn·sec·cm^−5
same,"mean pulmonary arterial pressure (mPAP), mean ± SD","1000 μg, 0 D 01 H […]",32.0 ± 8.9 mmHg
same,"pulmonary vascular resistance (PVR), mean ± SD","1000 μg, 0 D 01 H […]",542.130 ± 187.227 dyn·sec·cm^−5
same,"mean pulmonary arterial pressure (mPAP), mean ± SD","1000 μg, 0 D 02 H 00 M",32.3 ± 9.0 mmHg
same,"pulmonary vascular resistance (PVR), mean ± SD","1000 μg, 0 D 02 H 00 M",487.951 ± 144.546 dyn·sec·cm^−5
same,"mean pulmonary arterial pressure (mPAP), mean ± SD","1000 μg, 0 D 02 H […]",33.5 ± 10.7 mmHg
same,"pulmonary vascular resistance (PVR), mean ± SD","1000 μg, 0 D 02 H […]",537.812 ± 204.640 dyn·sec·cm^−5
same,"pulmonary vascular resistance (PVR), mean ± SD","1000 μg, 0 D 03 H 00 M",535.636 ± 235.786 dyn·sec·cm^−5
same,mean peak change of PVR from baseline,2000 μg,−38.1%
same,mean change of PVR from baseline,"2000 μg and 4000 μg groups, single inhaled dose, per protocol set N=4 each",approximately −30%
same,"mean pulmonary arterial pressure (mPAP), mean ± SD",[4],33.5 ± 3.4 mmHg
same,"pulmonary vascular resistance (PVR), mean ± SD",[4],468.608 ± 20.537 dyn·sec·cm^−5
same,"mean pulmonary arterial pressure (mPAP), mean ± SD","2000 μg, 0 D 00 H 30 M",33.3 ± 6.3 mmHg
same,"pulmonary vascular resistance (PVR), mean ± SD","2000 μg, 0 D 00 H 30 M",464.586 ± 58.200 dyn·sec·cm^−5
same,"mean pulmonary arterial pressure (mPAP), mean ± SD","2000 μg, 0 D 01 H 00 M",30.8 ± 5.6 mmHg
same,"pulmonary vascular resistance (PVR), mean ± SD","2000 μg, 0 D 01 H 00 M",421.730 ± 81.602 dyn·sec·cm^−5
same,"mean pulmonary arterial pressure (mPAP), mean ± SD","2000 μg, 0 D 01 H 30 M",28.5 ± 7.3 mmHg
same,"pulmonary vascular resistance (PVR), mean ± SD","2000 μg, 0 D 01 H 30 M",340.782 ± 82.566 dyn·sec·cm^−5
same,"mean pulmonary arterial pressure (mPAP), mean ± SD","2000 μg, 0 D 02 H 00 M",27.0 ± 6.1 mmHg
same,"pulmonary vascular resistance (PVR), mean ± SD","2000 μg, 0 D 02 H 00 M",339.924 ± 105.884 dyn·sec·cm^−5
same,"mean pulmonary arterial pressure (mPAP), mean ± SD","2000 μg, 0 D 02 H 30 M",27.3 ± 6.0 mmHg
same,"pulmonary vascular resistance (PVR), mean ± SD","2000 μg, 0 D 02 H 30 M",338.404 ± 87.381 dyn·sec·cm^−5
same,"mean pulmonary arterial pressure (mPAP), mean ± SD","2000 μg, 0 D 03 H 00 M",27.5 ± 5.2 mmHg
same,"pulmonary vascular resistance (PVR), mean ± SD","2000 μg, 0 D 03 H 00 M",327.284 ± 25.882 dyn·sec·cm^−5
same,mean peak change of PVR from baseline,4000 μg,−36.3%
same,"mean pulmonary arterial pressure (mPAP), mean ± SD",[5],46.0 ± 8.1 mmHg
same,"pulmonary vascular resistance (PVR), mean ± SD",[5],713.998 ± 117.204 dyn·sec·cm^−5
same,"mean pulmonary arterial pressure (mPAP), mean ± SD","4000 μg, 0 D 00 H 30 M",43.0 ± 4.6 mmHg
same,"pulmonary vascular resistance (PVR), mean ± SD","4000 μg, 0 D 00 H 30 M",616.894 ± 97.774 dyn·sec·cm^−5
same,"mean pulmonary arterial pressure (mPAP), mean ± SD","4000 μg, 0 D 01 H 00 M",41.3 ± 4.6 mmHg
same,"pulmonary vascular resistance (PVR), mean ± SD","4000 μg, 0 D 01 H 00 M",542.417 ± 97.103 dyn·sec·cm^−5
same,"mean pulmonary arterial pressure (mPAP), mean ± SD","4000 μg, 0 D 01 H 30 M",40.3 ± 5.1 mmHg
same,"pulmonary vascular resistance (PVR), mean ± SD","4000 μg, 0 D 01 H 30 M",573.812 ± 123.865 dyn·sec·cm^−5
same,"mean pulmonary arterial pressure (mPAP), mean ± SD","4000 μg, 0 D 02 H 00 M",40.0 ± 5.3 mmHg
same,"pulmonary vascular resistance (PVR), mean ± SD","4000 μg, 0 D 02 H 00 M",501.07 ± 97.979 dyn·sec·cm^−5
same,"mean pulmonary arterial pressure (mPAP), mean ± SD","4000 μg, 0 D 02 H […]",39.8 ± 3.0 mmHg
same,"pulmonary vascular resistance (PVR), mean ± SD","4000 μg, 0 D 02 H […]",526.648 ± 144.679 dyn·sec·cm^−5
same,"mean pulmonary arterial pressure (mPAP), mean ± SD","4000 μg, 0 D 03 H 00 M",39.8 ± 4.1 mmHg
same,"pulmonary vascular resistance (PVR), mean ± SD","4000 μg, 0 D 03 H 00 M",493.103 ± 130.480 dyn·sec·cm^−5
same,duration of sustained PVR effect with no decrease in response,end of the measurement period,≥ 3 h
same,tolerability,single inhaled doses 240 to 4000 μg,Overall good tolerability was seen including the highest dose of 4000 μg
